Experiments:
[1] = target: T1, recombinant, purified human Caspase-1 (Homo sapiens, UniProt P29466); assay: Enzyme assay, caspase inhibition (fluorogenic substrate cleavage); format: biochemical; conditions: second order rate constant of enzyme inactivation; substrate Acetyl-Tyr-Val-Ala-Asp-amino-4-methylcoumarin
T1 sequence (P29466 120-297 limits assumed): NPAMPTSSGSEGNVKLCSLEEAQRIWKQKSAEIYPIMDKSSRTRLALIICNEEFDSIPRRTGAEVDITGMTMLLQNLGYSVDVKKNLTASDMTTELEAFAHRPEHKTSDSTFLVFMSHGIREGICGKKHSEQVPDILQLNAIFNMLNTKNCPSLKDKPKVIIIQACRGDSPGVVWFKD
T1 sequence (P29466 317-404 limits assumed): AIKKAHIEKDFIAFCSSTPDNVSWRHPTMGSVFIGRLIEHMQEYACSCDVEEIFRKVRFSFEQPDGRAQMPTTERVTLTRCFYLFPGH
Text: (§1) The assays for caspase inhibition are based on the cleavage of a fluorogenic substrate by recombinant, purified human Caspases −1, −3, −7 or −8. The assays are run in essentially the same way as those reported by Garcia-Calvo et al., J. Biol. Chem. 273, 32608-32613 (1998), using a substrate specific for each enzyme. The substrate for Caspase-1 is Acetyl-Tyr-Val-Ala-Asp-amino-4-methylcoumarin and the substrate for Caspases −3, −7 and −8 is Acetyl-Asp-Glu-Val-Asp-amino-4-methylcoumarin both as disclosed in Garcia-Calvo et al., J. Biol. Chem. 273, 32608-32613 (1998).
(§2) The observed rate of enzyme inactivation at a particular inhibitor concentration, kobs, is computed by direct fits of the data to the equation derived by Thornberry et al., Biochemistry, 33, […] (1994) using a nonlinear least-squares analysis computer program (PRISM 2.0; GraphPad software). To obtain the second order rate constant, kinact, kobs values are plotted against their respective inhibitor concentrations and kinact values are subsequently calculated by computerized linear regression.
(§3) Compounds with kinact(M^−1s^−1)>500000 are listed as “A”. Compounds with kinact(M^−1s^−1) between 100000 and 500000 are listed as “B”. Compounds with kinact(M^−1s^−1)<100000 are listed as “C”.

[2] = target: T2, recombinant, purified human Caspase-3 (Homo sapiens, UniProt P42574); assay: as above; format: biochemical; conditions: second order rate constant of enzyme inactivation; substrate Acetyl-Asp-Glu-Val-Asp-amino-4-methylcoumarin
T2 sequence (P42574 29-175 limits assumed): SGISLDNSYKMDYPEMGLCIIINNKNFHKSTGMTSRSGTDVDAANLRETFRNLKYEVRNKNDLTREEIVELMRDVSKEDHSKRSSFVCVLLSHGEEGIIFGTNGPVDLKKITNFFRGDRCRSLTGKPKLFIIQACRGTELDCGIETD
T2 sequence (P42574 176-277 limits assumed): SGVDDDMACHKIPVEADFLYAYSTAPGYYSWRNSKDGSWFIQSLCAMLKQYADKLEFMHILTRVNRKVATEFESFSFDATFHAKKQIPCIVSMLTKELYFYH
Text: as §1, §2, §3

[3] = target: recombinant, purified human Caspase-8 (Homo sapiens, UniProt Q14790); assay: as above; format: biochemical; conditions: second order rate constant of enzyme inactivation; substrate Acetyl-Asp-Glu-Val-Asp-amino-4-methylcoumarin
recombinant, purified human Caspase-8, sequence (Q14790 217-374 limits assumed): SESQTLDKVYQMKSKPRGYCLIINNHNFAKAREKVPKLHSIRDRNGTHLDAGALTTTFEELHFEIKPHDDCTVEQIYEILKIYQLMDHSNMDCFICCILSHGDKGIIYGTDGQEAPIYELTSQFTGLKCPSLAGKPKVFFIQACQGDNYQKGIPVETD
recombinant, purified human Caspase-8, sequence (Q14790 385-479 limits assumed): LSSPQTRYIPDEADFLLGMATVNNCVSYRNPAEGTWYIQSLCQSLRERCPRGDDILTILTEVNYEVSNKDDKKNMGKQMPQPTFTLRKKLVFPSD
Text: as §1, §2, §3

[4] = tested on: IL-1β secretion from human whole blood; assay: Inhibition of IL-1β secretion from whole blood; format: cell-based; conditions: human whole blood diluted 1:2 in PBS, LPS 5 ng/ml, 18 hours, ELISA
Protocol: Human blood is freshly drawn from healthy donors and diluted 1:2 in PBS. To 500 μl of diluted blood […] of prediluted test compound in RPMI medium and […] LPS (5 ng/ml final concentration on the plate) are added (LPS, Serotype 0111:B4, Sigma L3012). After stimulation for 18 hours supernatants are collected and assayed for IL-1β levels using the appropriate ELISA kit (R&D systems).
Compounds with an IC50>10 μM are listed as “A”. Compounds with an IC50 between 1 μM and 10 uM are listed as “B”. Compounds with an IC50<1 μM are listed as “C”.

[5] = tested on: rat cortical neurons; assay: Hypoxia-induced apoptosis of rat cortical neurons; format: cell-based, Wistar rat; conditions: Cortical neurone, oxygen-depleted serum-free medium, Cell Death Detection ELISA (DNA fragmentation)
Protocol: Cortical neurons are dissociated from Wistar rat embryos (E17) by a modification of the procedure of Rogers et al., Brain Res. Bulletin, 44:131 (1998). Briefly, cerebral cortices are isolated aseptically from 15-20 Wistar rat embryos. A cell suspension is prepared by mincing the cerebral cortices and digesting them with papain. Cells are washed with ovomucoid enzyme inhibitor and DNaseI and plated onto Poly-D lysine coated plates in high glucose DMEM containing 10% heat-inactivated fetal calf serum, L-glutamine, penicillin and streptomycin. The yield of neurons is […] per embryo and they are 80-90% viable as assessed by Trypan blue exclusion.
The neurons are cultured in complete medium at 37° C. in a normal atmosphere for 48 hours prior to the hypoxia experiments. For hypoxia, the normal cell medium is replaced by oxygen-depleted serum-free medium. Cells are incubated in an atmosphere of 95% N2/5% CO2 for various lengths of time. Compounds are dissolved in DMSO at 100 mM then diluted in medium and added to the culture from time=0. The level of apoptosis is measured using a Cell Death Detection ELISA kit (Roche) which detects DNA fragmentation. Plates are read at 405 nm. Controls included cells cultured in aerobic conditions in serum-containing medium (+serum) and cells cultured in aerobic conditions in serum-deprived medium (−serum).
Compounds with an IC50>0.5 μM are listed as “A”. Compounds with an IC50 between 0.1 μM and 0.5 uM are listed as “B”. Compounds with an IC50<0.1 μM are listed as “C”.

| Structure (SMILES) | IC50 [4] | kinact Caspase-1 [1] | kinact Caspase-3 [2] | kinact Caspase-8 [3] | IC50 [5] |
| --- | --- | --- | --- | --- | --- |
| CC[C@@H](C(=O)N[C@@H](CC(=O)O)C(=O)COc1c(F)c(F)cc(F)c1F)n1ccc2cc(Cl)c(Cl)cc2c1=O [Compound 11, (S,S)-3-[2-(6,7-dichloro-1-oxo-1H-isoquinolin-2-yl)-butyrylamino]-4-oxo-5-(2,3,5,6-tetrafluoro-phenoxy)-pentanoic acid] | > 10000 nM | A (Compounds with kinact(M^−1s^−1)>500000 are listed as “A”) | A (Compounds with kinact(M^−1s^−1)>500000 are listed as “A”) | C (Compounds with kinact(M^−1s^−1)<100000 are listed as “C”) | 100 to 500 nM |
| CC[C@@H](C(=O)NC(CC(=O)O)C(=O)CF)n1cnc2ccc(Sc3cccc(F)c3)cc2c1=O (stereo partly drawn) [Compound 17, 5-Fluoro-3{(2S)-2[6-(3-fluoro-phenylsulfanyl)-4-oxo-4H-quinazolin-3-yl]-butyrylamino}-4-oxo-pentanoic acid] | 1000 to 10000 nM | A (Compounds with kinact(M^−1s^−1)>500000 are listed as “A”) | A (Compounds with kinact(M^−1s^−1)>500000 are listed as “A”) | A (Compounds with kinact(M^−1s^−1)>500000 are listed as “A”) | 100 to 500 nM |
| CC[C@@H](C(=O)N[C@@H](CC(=O)O)C(=O)COc1c(F)c(F)cc(F)c1F)n1cnc2ccccc2c1=O [Compound 6, (S,S)-4-Oxo-3-[2-(4-oxo-4H-quinazolin-3-yl)-butyrylamino]-5-(2,3,5,6-tetrafluoro-phenoxy)pentanoic acid] | 1000 to 10000 nM | B (Compounds with kinact(M^−1s^−1) between 100000 and 500000 are listed as “B”) | A (Compounds with kinact(M^−1s^−1)>500000 are listed as “A”) | C (Compounds with kinact(M^−1s^−1)<100000 are listed as “C”) | 100 to 500 nM |
| CC[C@@H](C(=O)N[C@@H](CC(=O)O)C(=O)COc1c(F)c(F)cc(F)c1F)n1cnc2ccc(Cl)cc2c1=O [Compound 5, (S,S)-3-[2-(6-Chloro-4-oxo-4H-quinazolin-3-yl)-butyrylamino]-4-oxo-5-(2,3,5,6-tetrafluoro-phenoxy)pentanoic acid] | 1000 to 10000 nM | A (Compounds with kinact(M^−1s^−1)>500000 are listed as “A”) | A (Compounds with kinact(M^−1s^−1)>500000 are listed as “A”) | B (Compounds with kinact(M^−1s^−1) between 100000 and 500000 are listed as “B”) | 100 to 500 nM |
| CC[C@@H](C(=O)N[C@@H](CC(=O)O)C(=O)COc1c(F)ccc(F)c1F)n1cnc2ccccc2c1=O [Compound 8, (S,S)-4-Oxo-3-[2-(4-oxo-4H-quinazolin-3-yl)-butyrylamino]-5-(2,5,6-trifluoro-phenoxy)-pentanoic acid] | 1000 to 10000 nM | B (Compounds with kinact(M^−1s^−1) between 100000 and 500000 are listed as “B”) | B (Compounds with kinact(M^−1s^−1) between 100000 and 500000 are listed as “B”) | C (Compounds with kinact(M^−1s^−1)<100000 are listed as “C”) | 100 to 500 nM |
| CC[C@@H](C(=O)NC(CC(=O)O)C(=O)CF)n1cnc2ccc(Oc3cccc(F)c3)cc2c1=O (stereo partly drawn) [Compound 14, 5-Fluoro-3-{(2S)-2[6-(3-fluorophenoxy)-4-oxo-4H-quinazolin-3-yl]-butyrylamino}-4-oxo-pentanoic acid] | < 1000 nM | A (Compounds with kinact(M^−1s^−1)>500000 are listed as “A”) | A (Compounds with kinact(M^−1s^−1)>500000 are listed as “A”) | B (Compounds with kinact(M^−1s^−1) between 100000 and 500000 are listed as “B”) | > 500 nM |
| CCCSc1ccc2ncn([C@@H](CC)C(=O)NC(CC(=O)O)C(=O)CF)c(=O)c2c1 (stereo partly drawn) [Compound 22, 5-Fluoro-4-oxo-3-[(2S)-2-(4-oxo-6-propylsulfanyl-4H-quinazolin-3-yl)-butyrylamino]-pentanoic acid] | < 1000 nM | A (Compounds with kinact(M^−1s^−1)>500000 are listed as “A”) | A (Compounds with kinact(M^−1s^−1)>500000 are listed as “A”) | A (Compounds with kinact(M^−1s^−1)>500000 are listed as “A”) | > 500 nM |

Now from value to molecule, other results behind:

| IC50 [4] | Structure (SMILES) | kinact Caspase-1 [1] | kinact Caspase-3 [2] | kinact Caspase-8 [3] | IC50 [5] |
| --- | --- | --- | --- | --- | --- |
| 1000 to 10000 nM | CC[C@@H](C(=O)NC(CC(=O)O)C(=O)CF)n1ccc2ccc(-c3ccccc3)cc2c1=O (mixture of isomers) [Compound 21, (S)-3-[2-(7-phenyl-1-oxo-1H-isoquinolin-2-yl)-butyrylamino]-5-fluoro-4-oxo-pentanoic acid] | A (Compounds with kinact(M^−1s^−1)>500000 are listed as “A”) | A (Compounds with kinact(M^−1s^−1)>500000 are listed as “A”) | A (Compounds with kinact(M^−1s^−1)>500000 are listed as “A”) | 100 to 500 nM |
| 1000 to 10000 nM | CC[C@@H](C(=O)NC(CC(=O)O)C(=O)CF)n1ccc2cc(Cl)ccc2c1=O (mixture of isomers) [Compound 3, (S)-3-[2-(6-chloro-1-oxo-1H-isoquinolin-2-yl)-butyrylamino]-5-fluoro-4-oxo-pentanoic acid] | B (Compounds with kinact(M^−1s^−1) between 100000 and 500000 are listed as “B”) | B (Compounds with kinact(M^−1s^−1) between 100000 and 500000 are listed as “B”) | C (Compounds with kinact(M^−1s^−1)<100000 are listed as “C”) | 100 to 500 nM |
| 1000 to 10000 nM | CC[C@@H](C(=O)NC(CC(=O)O)C(=O)CF)n1ccc2cc(C(F)(F)F)ccc2c1=O (stereo in doubt) [Compound 4, (S)-3-[2-(6-trifluoromethyl-1-oxo-1H-isoquinolin-2-yl)-butyrylamino]-5-fluoro-4-oxo-pentanoic acid] | B (Compounds with kinact(M^−1s^−1) between 100000 and 500000 are listed as “B”) | B (Compounds with kinact(M^−1s^−1) between 100000 and 500000 are listed as “B”) | C (Compounds with kinact(M^−1s^−1)<100000 are listed as “C”) | > 500 nM |
| 1000 to 10000 nM | CC(C)[C@@H](C(=O)NC(CC(=O)O)C(=O)CF)n1ccc2ccc(Cl)cc2c1=O (mixture of isomers) [Compound 18, (S)-3-[2-(7-chloro-1-oxo-1H-isoquinolin-2-yl)-3-methylbutyrylamino]-5-fluoro-4-oxo-pentanoic acid] | B (Compounds with kinact(M^−1s^−1) between 100000 and 500000 are listed as “B”) | B (Compounds with kinact(M^−1s^−1) between 100000 and 500000 are listed as “B”) | C (Compounds with kinact(M^−1s^−1)<100000 are listed as “C”) | 100 to 500 nM |

Reference: patent US8129381B2, “Caspase inhibitors and uses thereof” (Vertex Pharmaceuticals Incorporated, priority 2002, dated 2012)
